# According to patent publication US20100075907A1, “NEUROMEDIN U RECEPTOR AGONISTS AND USES THEREOF” (priority 2006, published 2010):
# Starred links: 1 amine or outer side, 2 acyl side, 3 side chain; linkers in the order of their positions; H or OH if unused. Residues, ends and D or L forms follow the SMILES beside them. *: point of attachment. X1 = CC(C)CCC[C@@H](C)[C@H]1CC[C@H]2[C@@H]3CC=C4C[C@@H](OC(=O)C*)CC[C@]4(C)[C@H]3CC[C@]12C; X2 = CCN1C(=O)CC(SC[C@H](NC(C)=O)C(=O)NCCCOCCOCCOCCCN*)C1=O; Succinimide(1-Et,3-yl) = CCN1C(=O)CC(*)C1=O; Palmitoyl = CCCCCCCCCCCCCCCC(=O)*; Suc = O=C(CCC(=O)[*:2])[*:1]
# Assays:
# [1] = target: T1, rat NMUR1-TTG (Rattus norvegicus, UniProt Q9JJI5); assay: FLIPR calcium mobilization assay, rat NMUR1-TTG; type: cell-based; set-up: expressed in transfected cells; host or cells: FLP-In CHO or HEK-293 FLP-In cells (pcDNA5); settings: rat NMUR1-TTG; for % Activity: maximum response at 1 μM compared to hNMU-25
# T1 sequence (Q9JJI5 1-425): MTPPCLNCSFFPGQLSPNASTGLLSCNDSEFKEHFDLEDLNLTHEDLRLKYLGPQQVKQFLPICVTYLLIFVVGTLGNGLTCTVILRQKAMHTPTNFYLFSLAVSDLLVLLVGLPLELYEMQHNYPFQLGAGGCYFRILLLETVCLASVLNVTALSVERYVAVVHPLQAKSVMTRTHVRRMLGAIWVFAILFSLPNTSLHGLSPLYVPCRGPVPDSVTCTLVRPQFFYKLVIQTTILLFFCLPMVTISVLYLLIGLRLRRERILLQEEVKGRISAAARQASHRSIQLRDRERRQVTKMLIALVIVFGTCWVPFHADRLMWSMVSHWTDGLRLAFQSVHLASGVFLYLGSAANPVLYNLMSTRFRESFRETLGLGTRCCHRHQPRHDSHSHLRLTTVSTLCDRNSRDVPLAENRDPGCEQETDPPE
# From the text: Human, mouse or rat cDNAs encoding NMUR1 or NMUR2 (as described in Howard et al. Nature 406: 70-74 (2000) were subcloned in pcDNA5 (Invitrogen) and transfected into FLP-In CHO cells and HEK-293 FLP-In cells purchased from Invitrogen (Carlsbad, Calif.) using lipofectamine (Invitrogen). The Flp-In system allows integration and expression of a particular gene of interest at a specific genomic location utilizing the Flp recombinase from yeast. The transfected cells were selected by growth in medium containing 200 μg/mL hygromycin (Invitrogen). Populations were frozen at early passage numbers, and these stocks were used for further studies. Stable clones that expressed the mRNAs were identified functionally by FLIPR as well as by RT-PCR. […] Two different rodent NMUR1 cell lines were thus generated: one with the codon as predicted from the genomic databases and another cell line with an engineered methionine (ATG) as the start codon. Additionally, stable cell lines expressing the human receptors were generated in HEK-293/aeq17 cells which stably express the aequorin gene under the CMV promoter. The human NMUR2 cDNA was cloned into pcDNA3.1 and human NMUR1 was subcloned into pIRES-puro (Clontech, Mountain View, Calif.), after transfection cells were selected in media containing G418 and either hygromycin (NMUR2) or puromycin (NMUR1).
# The NMU receptors signal primarily through Gαq/11 proteins; therefore calcium mobilization assays can be utilized for functional activity.
# Stable cell lines expressing human and or rodent NMUR1 or human NMUR2 receptors were plated at a density of 12,000 cells per well overnight on poly-lysine coated 384-well black-walled plates. The following day, the media was removed from the plates and the cells were subsequently loaded with Fluo-3 (Molecular Probes), a calcium sensitive dye, diluted in FLIPR buffer (1× Hank's buffered saline containing 20 mM HEPES, 0.1% BSA, 2.5 mM probenecid (Sigma) and 1.6 mM TR40). All reagents are from Invitrogen unless otherwise noted. Peptide stocks were resuspended in DMSO at a stock concentration of 2 mM and diluted in FLIPR buffer on the day of the experiment to a 4 μM working stock solution.
# After a 90 minute incubation at room-temperature, cell plates were loaded onto a FLIPR (Molecular Devices) to monitor cellular fluorescence (excitation=488 nm; emission=540 nm) before and after compound/peptide addition. Eight to twelve point dose responses were tested on NMUR-expressing cell lines using FLIPR with 1 μM peptide as the highest dose. The response after peptide addition was taken as the maximum fluorescence units minus the fluorescence immediately prior to stimulation for each well. EC50 values were calculated using GraphPad Prism (San Diego, Calif.) software.
# In vitro responses of Neuromedin U receptor agonists (NMU1 to NMU25) in the FLIPR assay for human (Table 3), mouse (Table 4) and rat (Table 5) NMUR1 and NMUR2. EC50s are reported in nM values. Percent activity refers to the maximum response at 1 μM compared to the hNMU-25 response at the same concentration. NT=not tested.
# [2] = test system: diet-induced obese mice; assay: Feeding study in diet-induced obese mice (food intake, body weight); type: in vivo; settings: for % Food intake (FI) reductions Day 1: Day 1, based on vehicle responses
# From the text: NMUR1 knockout (Nmur1−/−) mice were generated using standard homologous recombination techniques. Nmur1 mice were subsequently transferred to Taconic Farms where they were either maintained on a 75% C57BL/6×25% 129S6/SvEv mixed genetic background or backcrossed six generations to C57BL/6. NMUR2 knockout (Nmur2−/−) mice were licensed from Deltagen Inc., San Mateo, Calif. and subsequently transferred to Taconic Farms where they were either maintained on a 75% C57BL/6×25% 129/OlaHsd mixed genetic background or backcrossed for seven generations to C57BL/6. NMUR1 and NMUR2 double knockout (Nmur1&2−/−) mice were generated by crossing N6 Nmur1−/− mice to N7 Nmur2−/− mice. Mice were individually housed in Tecniplast cages in a conventional SPF facility. Mice were initially maintained on a regular chow diet and then early in their life were switched to a high fat diet (D12492: 60% kcal from fat; Research Diets, Inc., New Brunswick, N.J.) with ad libitum access to water in a 12-hour light/12-hour dark cycle.
# Ad libitum fed male diet-induced obese mice were weighed and dosed either i.p. or s.c. about 30 minutes prior to the onset of the dark phase of the light cycle and provided with a preweighed aliquot of high fat diet D12492 which was then weighed 2 hours and 18 hours (day 1), 42 hours (day 2), 66 hours (day 3), and 90 hours (day 4) after the onset of the initial dark phase. Mice were weighed at the 18, 42, 66 and 90 hour time points.
molecule,measurement,setting,value
"CCCCCCCCCCCCCCCC(=O)N[C@@H](CSC1CC(=O)N(CC)C1=O)C(=O)N[C@@H](Cc1ccccc1)C(=O)N[C@@H](CCCNC(=N)N)C(=O)N[C@H](C(=O)N[C@@H](CC(=O)O)C(=O)N[C@@H](CCC(=O)O)C(=O)N[C@@H](CCC(=O)O)C(=O)N[C@@H](Cc1ccccc1)C(=O)N[C@@H](CCC(N)=O)C(=O)N[C@@H](CO)C(=O)N1CCC[C@H]1C(=O)N[C@@H](Cc1ccccc1)C(=O)N[C@@H](C)C(=O)N[C@@H](CO)C(=O)N[C@@H](CCC(N)=O)C(=O)N[C@@H](CO)C(=O)N[C@@H](CCCNC(=N)N)C(=O)NCC(=O)N[C@@H](Cc1ccc(O)cc1)C(=O)N[C@@H](Cc1ccccc1)C(=O)N[C@@H](CC(C)C)C(=O)N[C@@H](Cc1ccccc1)C(=O)N[C@@H](CCCNC(=N)N)C(=O)N1CCC[C@H]1C(=O)N[C@@H](CCCNC(=N)N)C(=O)N[C@@H](CC(N)=O)C(N)=O)C(C)C (some centres unmarked) [NMU24] (Palmitoyl-C(Succinimide(1-Et,3-yl))FRVDEEFQSPFASQSRGYFLFRPRN-NH2)",% Activity,[1],67.7%
"CCN1C(=O)CC(SC[C@H](NC(C)=O)C(=O)N[C@@H](C)C(=O)N[C@@H](CO)C(=O)N[C@@H](CCC(N)=O)C(=O)N[C@@H](CO)C(=O)N[C@@H](CCCNC(=N)N)C(=O)NCC(=O)N[C@@H](Cc2ccc(O)cc2)C(=O)N[C@@H](Cc2ccccc2)C(=O)N[C@@H](CC(C)C)C(=O)N[C@@H](Cc2ccccc2)C(=O)N[C@@H](CCCNC(=N)N)C(=O)N2CCC[C@H]2C(=O)N[C@@H](CCCNC(=N)N)C(=O)N[C@@H](CC(N)=O)C(N)=O)C1=O (some centres unmarked) [NMU17] (Ac-C(Succinimide(1-Et,3-yl))ASQSRGYFLFRPRN-NH2)",% Activity,[1],105.3%
"Pam-C2FRVDEEFQSPFASQSRGYFLFRPRN-CONH2 ({Palmitoyl-C(PEG 40 kDa)}-FRVDEEFQSPFASQSRGYFLFRPRN-NH2) [NMU25, Pam = palmitoyl; C2 = Cys(PEG)240 kDa]",EC50,[1]; FLIPR,81 nM
same,% Activity,[1],93.5%
Ac-C2FRVDEEFQSPFASQSRGYFLFRPRN-CONH2 [NMU9] ({Ac-C(PEG 40 kDa)}-FRVDEEFQSPFASQSRGYFLFRPRN-NH2) [C2 = Cys(PEG)240 kDa from Nektar (mPEG2-MAL-40 k)],extension of serum half-life by PEGylation,[2],three days
same,Body weight (BW) change (in grams) {relative to vehicle} Day 1,[2]; 10 mg/kg,−2.0 grams
same,% Food intake (FI) reductions Day 1,[2]; 10 mg/kg,56%
same,Body weight (BW) change (in grams) {relative to vehicle} Day 2,"[2]; 10 mg/kg, Day 2",−1.2 grams
same,% Food intake (FI) reductions Day 2,"[2]; 10 mg/kg, Day 2, based on vehicle responses",57%
same,Body weight (BW) change (in grams) {relative to vehicle} Day 3,"[2]; 10 mg/kg, Day 3",−0.2 grams
same,% Food intake (FI) reductions Day 3,"[2]; 10 mg/kg, Day 3, based on vehicle responses",18%
"Ac-C4-C4-FRVDEEFQSPFASQSRGYFLFRPRN-CONH2 ({Ac-C(PEG 20 kDa)-C(PEG 20 kDa)}-FRVDEEFQSPFASQSRGYFLFRPRN-NH2) [NMU23, C4 = Cys(PEG)20 kDa]",% Activity,[1],39.8%
"CCN1C(=O)CC(SC[C@H](NC(C)=O)C(=O)N[C@@H](CSC2CC(=O)N(CC)C2=O)C(=O)N[C@@H](Cc2ccccc2)C(=O)N[C@@H](CCCNC(=N)N)C(=O)N[C@H](C(=O)N[C@@H](CC(=O)O)C(=O)N[C@@H](CCC(=O)O)C(=O)N[C@@H](CCC(=O)O)C(=O)N[C@@H](Cc2ccccc2)C(=O)N[C@@H](CCC(N)=O)C(=O)N[C@@H](CO)C(=O)N2CCC[C@H]2C(=O)N[C@@H](Cc2ccccc2)C(=O)N[C@@H](C)C(=O)N[C@@H](CO)C(=O)N[C@@H](CCC(N)=O)C(=O)N[C@@H](CO)C(=O)N[C@@H](CCCNC(=N)N)C(=O)NCC(=O)N[C@@H](Cc2ccc(O)cc2)C(=O)N[C@@H](Cc2ccccc2)C(=O)N[C@@H](CC(C)C)C(=O)N[C@@H](Cc2ccccc2)C(=O)N[C@@H](CCCNC(=N)N)C(=O)N2CCC[C@H]2C(=O)N[C@@H](CCCNC(=N)N)C(=O)N[C@@H](CC(N)=O)C(N)=O)C(C)C)C1=O (some centres unmarked) [NMU22] (Ac-C(Succinimide(1-Et,3-yl))C(Succinimide(1-Et,3-yl))FRVDEEFQSPFASQSRGYFLFRPRN-NH2)",% Activity,[1],96.4%
"H-FRVDEEFQSPFASQSRGYFLFRPRN-NH2 [hNMU-25, reference compound]",Body weight (BW) change (in grams) {relative to vehicle} Day 1,[2]; 10 mg/kg,−0.6 grams
same,% Food intake (FI) reductions Day 1,[2]; 10 mg/kg,21%
H-FRVDEEFQSPFASQSRPYFLFRPRN-NH2 [NMU4],Body weight (BW) change (in grams) {relative to vehicle} Day 1,[2]; 3 mg/kg,−0.3 grams
same,% Food intake (FI) reductions Day 1,[2]; 3 mg/kg,12%
"CCN1C(=O)CC(SC[C@H](NC(C)=O)C(=O)NCCCOCCOCCOCCCNC(=O)CCC(=O)N[C@@H](Cc2ccccc2)C(=O)N[C@@H](CC(C)C)C(=O)N[C@@H](Cc2ccccc2)C(=O)N[C@@H](CCCNC(=N)N)C(=O)N2CCC[C@H]2C(=O)N[C@@H](CCCNC(=N)N)C(=O)N[C@@H](CC(N)=O)C(N)=O)C1=O (some centres unmarked) [NMU15, Ac-C1-Ttds-FLFRPRN-CONH2] ({X2-Suc}-FLFRPRN-NH2)",% Activity,[1],107.5%
Ac-FRVDEEFQSPFASQSRPYFLFRPRN-NH2 [NMU5],Body weight (BW) change (in grams) {relative to vehicle} Day 1,[2]; 3 mg/kg,−0.5 grams
same,% Food intake (FI) reductions Day 1,[2]; 3 mg/kg,26%
Ac-FRVDEEFQSPFASQSRGYFLFRPRN-NH2 [NMU2],Body weight (BW) change (in grams) {relative to vehicle} Day 1,[2]; 3 mg/kg,−0.7 grams
same,% Food intake (FI) reductions Day 1,[2]; 3 mg/kg,25%
CC(=O)N[C@@H](CSCC(=O)O[C@H]1CC[C@@]2(C)C(=CC[C@H]3[C@@H]4CC[C@H]([C@H](C)CCCC(C)C)[C@@]4(C)CC[C@@H]32)C1)C(=O)NCC(=O)N[C@@H](Cc1ccc(O)cc1)C(=O)N[C@@H](Cc1ccccc1)C(=O)N[C@@H](CC(C)C)C(=O)N[C@@H](Cc1ccccc1)C(=O)N[C@@H](CCCNC(=N)N)C(=O)N1CCC[C@H]1C(=O)N[C@@H](CCCNC(=N)N)C(=O)N[C@@H](CC(N)=O)C(N)=O [NMU11] (Ac-C(X1)GYFLFRPRN-NH2),extension of serum half-life by PEGylation,[2],two days
